Legend:
[1] = Solubility in organic solvents at room temperature by direct dissolution method; assay type: physicochemical; conditions: for Solubility: room temperature; for Solubility in aromatic solvents: toluene and tetralin, by NMR spectroscopy and direct dissolution method
Procedure: The solubility of N,N′-di-tert-butylacetamidinato-N,N′-di-tert-butylacetamidinatocarbamoyl dicarbonyl Ruthenium(II) (“Ru-Cbm-Invention”, from Example 1) and bis(N,N′-di-tert-butylacetamidinato) dicarbonyl Ruthenium(II) (“Ru-AMD-Comparative”) were determined at room temperature in a variety of solvents by direct dissolution method. The solid Ru-AMD-Comparative compound was prepared by the synthetic route described in R. Gordon et al., The Open Inorganic Chemistry Journal, 2 (2008) 11. Compounds with less than 0.01 wt % dissolved were considered to be sparingly soluble.

[2] = Decomposition temperature by accelerated rate calorimetry (ARC); assay type: physicochemical; conditions: ARC adiabatic calorimeter, self-heating exceeding 0.02° C./minute
Procedure: The decomposition temperature of N,N′-di-tert-butylacetamidinato-N,N′-di-tert-butylacetamidinatocarbamoyl dicarbonyl Ruthenium(II) (“Ru(AMD)-Cbm”) was determined using accelerated rate calorimetry (ARC™ adiabatic calorimeter available from Arthur D. Little). A sample of the compound was placed in a spherical bomb that was connected to a sealed pressure measurement system. A thermocouple was attached to the outside of the bomb and the bomb was placed in the center of the calorimeter assembly. The calorimeter assembly has 3 zones, each zone having its own thermocouple and heaters. The ARC™ calorimeter uses a heat-wait-search-exotherm program. The calorimeter and the sample were heated to a start temperature. The sample and calorimeter temperatures equilibrated during the wait portion of the program. Next, the calorimeter monitored the sample for self-heating (exceeding 0.02° C./minute) during the search portion of the program to determine the onset temperature of the exotherm. To be useful in ALD processes, a precursor should not decompose at temperatures at or below 140° C., and preferably not at or below 150° C.

[3] = Mixture of Diphenyl ether and Biphenyl
[4] = Polyethylene glycol dibutyl ether

| SMILES | Solubility ([1]; Cyclohexylbenzene) | Solubility ([1]; Cyclohexylbenzene:LAB (1:1)) | Solubility ([1]; LAB) | Solubility [1, 3] | Solubility ([1]; Pentamethyldiethylenetriamine) | Solubility [1, 4] | Solubility ([1]; THF) | Solubility ([1]; Tetralin) | Solubility ([1]; Toluene) | Increase of solubility as compared to Ru-AMD ([1]; in tetrahydrofuran) | Solubility ([1]; n-Octane) | Solubility in aromatic solvents [1] | Temperature up to which the sample was stable (decomposition, onset of exotherm) [2] |
| --- | --- | --- | --- | --- | --- | --- | --- | --- | --- | --- | --- | --- | --- |
| CC1=[N+](C(C)(C)C)[Ru-4]2([C]#[O+])([C]#[O+])([C](=O)N1C(C)(C)C)[N](C(C)(C)C)C(C)=[N+]2C(C)(C)C [Ru-Cbm, N,N′-di-tert-butylacetamidinato-N,N′-di-tert-butylacetamidinatocarbamoyl dicarbonyl Ruthenium(II)] | 6.0 wt % | 6.0 wt % | 3.0 wt % | 12.0 wt % | 15.0 wt % | 8.0 wt % | 43.6 wt % | 8.5 wt % | 38.5 wt % | 62 fold | 2.3 wt % | soluble | up to 250 °C |
| CC(=NC(C)(C)C)[N]([Ru][N](C(C)=NC(C)(C)C)C(C)(C)C)C(C)(C)C.[C-]#[O+].[C-]#[O+] [Ru-AMD, bis(N,N′-di-tert-butylacetamidinato) dicarbonyl Ruthenium(II), reference compound] | <0.01 wt % | <0.01 wt % | <0.01 wt % | <0.01 wt % | <0.01 wt % | <0.01 wt % | 0.7 wt % | <0.01 wt % | <0.01 wt % |  | insoluble | little to no solubility |  |
